In patent publication US20260232710A1, “AGENTS, COMPOSITIONS, AND METHODS FOR SUPPORTING BEHAVIOURAL DEVELOPMENT” (SOCIÉTÉ DES PRODUITS NESTLÉ S.A., priority 2023, published 2026):

System: human breast milk-fed infants
Assay: Regression association of breast milk HMO levels with IBQ-R negative affectivity in infants
Type: in vivo
Method: In some embodiments, social-emotional skills are determined by an Infant Behavior Questionnaire (IBQ), such as the IBQ-Revised (IBQ-R). The “IBQ-R (revised Infant Behavior Questionnaire) questionnaire” is a widely used parent-report measure for assessing dimensions of temperament along 14 scales, as reported below, in infants between 3 and 12 months of age (see e.g. Gartstein, M. A. and Rothbart, M. K., 2003. Infant behavior and development, 26(1), pp. 64-86).
The subject's negative affectivity can be determined by any suitable method. In some embodiments, the subject's negative affectivity is determined by an Infant Behavior Questionnaire (IBQ), for example the IBQ-Revised (IBQ-R). For example, negative affectivity may be a domain constructed out of the following scales on the IBQ-R: sadness, fear, distress to limitations, activity level, and falling reactivity. The one or more HMOs according to the present invention may reduce sadness, fear, and/or distress to limitations. The one or more HMOs according to the present invention may improve activity level and/or rate of recovery from distress.
A total of 195 infants were tested. Breastmilk HMO levels were tested in breastmilk collected at two months and three months. Infant behaviours were assessed with an Infant Behaviour Questionnaire-Revised (IBQ-R). […]

With Lacto-N-difucohexaose I [LNDFHI] the IBQR (breast milk collected at 2 months, negative affectivity of infants at 9 months, N=195) was “Reduced” and the “association with negative emotions in infants” value (infants at 9 months, breast milk HMO levels) was “associated with reduction in negative emotions”.
